Source: patent publication US20190315806A1, “POLYMYXIN DERIVATIVE, PREPARATION METHOD AND APPLICATION THEREOF” (priority 2016, published 2019)
In brackets after ≈: the same amount, converted by molar mass. Where two headings read alike, the source gives them in different places. Where a SMILES comes first, the peptide text is derived from it. Bridges are numbered along the chain shown (N, C = ends). [ ]: non-standard residue; d: D form. The star is where a group is joined. dPhe(4-CN) = N#Cc1ccc(C[C@@H](N)C(=O)O)cc1; dPhe(4-NH2) = Nc1ccc(C[C@@H](N)C(=O)O)cc1; Heptanoyl(6-Me) = CC(C)CCCCC(=O)*; X2 = CC[C@H](C)CCCCC(=O)*; dDab = NCC[C@@H](N)C(=O)O; Octanoyl = CCCCCCCC(=O)*; Dab = NCC[C@H](N)C(=O)O; X1 = CCCCCC(=O)CC(=O)*; X3 = CCCCC(=O)CC(=O)*

What was measured:
Format in all cases: cell-based
[1] = test system: Acinetobacter baumannii ATCC 19606
Outline: (§1)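 Overnight broth cultures were spotted at 10^4 CFU per dot onto agar plates holding two-fold compound dilutions (final 0.03–128 μg/mL), following CLSI. Plates were read after 18–24 h at 35 °C, with the lowest colony-free concentration taken as MIC.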

[2] = test system: Escherichia coli ATCC 25922
Outline: as §1

[3] = test system: Pseudomonas aeruginosa ATCC 27853
Outline: as §1

[4] = test system: Staphylococcus epidermidis ATCC 12228
Outline: as §1

[5] = test system: Klebsiella pneumoniae ATCC BAA-2146 (NDM-1); assay: Antibacterial activity, MIC by dish double dilution method
Outline: as §1

[6] = Nephrotoxicity test, renal cytotoxicity by MTT method; settings: African green monkey
Description: African green monkey kidney cells (Vero cells) were cultured in MEM medium (Hyclone), 10% fetal calf serum (Invitrogen) was added before use, cultured at 37° C. under 5% CO2.
Experiment was carried out using MTT method. After digestion, cells in logarithmic growth phase were counted, then the cells were inoculated in a 96-well culture plate. After incubation for 24 h to be adherent, cells were treated with a concentration gradient of a compound of the invention (e.g., a compound prepared in the Embodiments) and the controls. After 72 h, the culture solution was removed, 100 uL of MTT reagent at a concentration of 0.5 mg/ml was added, the medium was removed after incubating for 3 hours in a 37° C. incubator. Add 150 μL DMSO solvent to each well, mix for 3 min, after which the absorbance at 570 nm (A) was measured with a microplate reader.
Cell viability %=(Adosed cell−Abackground)/(Acontrol cell−Abackground)×100%. The average value of 3 parallel wells was taken for each detection point, and the inhibition curve was drawn to calculate the IC50 value.
The African green monkey kidney cells (Vero cells) used in the experiment were from the Cell Resource Center of the Institute of Basic Medicine, Chinese Academy of Medical Sciences.

[7] = agar dilution, 10^4 CFU/dot, 18 to 24 hours at 35° C.

Compound | MIC A. baumannii ATCC 19606 ([1]; ATCC 19606) [µg/mL] | MIC E. coli ATCC 25922 ([2]; ATCC 25922) [µg/mL] | MIC P. aeruginosa ATCC 27853 ([3]; ATCC 27853) [µg/mL] | MIC S. epidermidis ATCC 12228 ([4]; ATCC 12228) [µg/mL] | MIC K. pneumoniae ATCC BAA-2146 (NDM-1) ([5]; ATCC BAA-2146) [µg/mL] | IC50 at 72 h [6] [µg/mL] | MIC A. baumannii ATCC 19606 [1, 7] [µg/mL] | MIC E. coli ATCC 25922 [2, 7] [µg/mL] | MIC P. aeruginosa ATCC 27853 [3, 7] [µg/mL] | MIC S. epidermidis ATCC 12228 [4, 7] [µg/mL] | MIC K. pneumoniae ATCC BAA-2146 (NDM-1) [5, 7] [µg/mL] | IC50 at 72 h ([6]; MTT, 72 h treatment, 3 parallel wells, read-out: Renal cytotoxicity IC50, Vero cells) [µg/mL]
CCCCC(=O)CC(=O)N[C@@H](CCN)C(=O)N[C@H](C(=O)N[C@@H](CCN)C(=O)N[C@H]1CCNC(=O)[C@H]([C@@H](C)O)NC(=O)[C@H](CCN)NC(=O)[C@H](CCN)NC(=O)[C@H](CC(C)C)NC(=O)[C@@H](Cc2ccccc2)NC(=O)[C@H](CCN)NC1=O)[C@@H](C)O [Compound 4, 3-oxoheptanoyl-Dab-Thr-Dab-ring(4-10)[Dab-Dab-D-Phe-Lue-Dab-Dab-Thr]] (X3-[Dab]T[Dab][Dab][Dab][dF]L[Dab][Dab]T; lactam 4-C) | 2 (≈ 1.68 µM) | 0.5 (≈ 0.42 µM) | 2 (≈ 1.68 µM) | 128 (≈ 108 µM) | 2 (≈ 1.68 µM) | 110 ± 9.08 (≈ 92.2 µM) | – | – | – | – | – | –
CCCCCC(=O)CC(=O)N[C@@H](CCN)C(=O)N[C@H](C(=O)N[C@@H](CCN)C(=O)N[C@H]1CCNC(=O)[C@H]([C@@H](C)O)NC(=O)[C@H](CCN)NC(=O)[C@H](CCN)NC(=O)[C@H](CC(C)C)NC(=O)[C@@H](Cc2ccccc2)NC(=O)[C@H](CCN)NC1=O)[C@@H](C)O [Compound 5, 3-oxooctanoyl-Dab-Thr-Dab-ring(4-10)[Dab-Dab-D-Phe-Lue-Dab-Dab-Thr]] (X1-[Dab]T[Dab][Dab][Dab][dF]L[Dab][Dab]T; lactam 4-C) | 2 (≈ 1.66 µM) | 0.5 (≈ 0.415 µM) | 1 (≈ 0.831 µM) | 32 (≈ 26.6 µM) | 0.5 (≈ 0.415 µM) | 93.7 ± 7.38 (≈ 77.9 µM) | – | – | – | – | – | –
CC[C@H](C)CCCCC(=O)N[C@@H](CCN)C(=O)N[C@H](C(=O)N[C@@H](CCN)C(=O)N[C@H]1CCNC(=O)[C@H]([C@@H](C)O)NC(=O)[C@H](CCN)NC(=O)[C@H](CCN)NC(=O)[C@H](CC(C)C)NC(=O)[C@@H](Cc2ccc(N)cc2)NC(=O)[C@H](CCN)NC1=O)[C@@H](C)O [Compound 11, (S)-6-methyloctanoyl-Dab-Thr-Dab-ring(4-10)[Dab-Dab-D-Phe(4-NH2)-Lue-Dab-Dab-Thr]] (X2-[Dab]T[Dab][Dab][Dab][dPhe(4-NH2)]L[Dab][Dab]T; lactam 4-C) | 1 (≈ 0.821 µM) | 1 (≈ 0.821 µM) | 2 (≈ 1.64 µM) | 128 (≈ 105 µM) | 2 (≈ 1.64 µM) | 166 ± 15.7 (≈ 137 µM) | – | – | – | – | – | –
CC[C@H](C)CCCCC(=O)N[C@@H](CCN)C(=O)N[C@H](C(=O)N[C@@H](CCN)C(=O)N[C@H]1CCNC(=O)[C@H]([C@@H](C)O)NC(=O)[C@H](CCN)NC(=O)[C@H](CCN)NC(=O)[C@H](CC(C)C)NC(=O)[C@@H](Cc2ccc(C#N)cc2)NC(=O)[C@H](CCN)NC1=O)[C@@H](C)O [Compound 13, (S)-6-methyloctanoyl-Dab-Thr-Dab-ring(4-10)[Dab-Dab-D-Phe(4-CN)-Lue-Dab-Dab-Thr]] (X2-[Dab]T[Dab][Dab][Dab][dPhe(4-CN)]L[Dab][Dab]T; lactam 4-C) | 0.25 (≈ 0.203 µM) | 0.5 (≈ 0.407 µM) | 2 (≈ 1.63 µM) | 16 (≈ 13 µM) | 1 (≈ 0.814 µM) | 186 ± 11.3 (≈ 151 µM) | – | – | – | – | – | –
CC[C@H](C)CCCCC(=O)N[C@@H](CCN)C(=O)N[C@H](C(=O)N[C@H](CCN)C(=O)N[C@H]1CCNC(=O)[C@H]([C@@H](C)O)NC(=O)[C@H](CCN)NC(=O)[C@H](CCN)NC(=O)[C@H]([C@@H](C)O)NC(=O)[C@@H](CC(C)C)NC(=O)[C@H](CCN)NC1=O)[C@@H](C)O [Compound 30, (S)-6-methyloctanoyl-Dab-Thr-D-Dab-ring(4-10)[Dab-Dab-D-Leu-Thr-Dab-Dab-Thr]] (X2-[Dab]T[dDab][Dab][Dab][dL]T[Dab][Dab]T; lactam 4-C) | 1 (≈ 0.864 µM) | 0.5 (≈ 0.432 µM) | 1 (≈ 0.864 µM) | >128 | 1 (≈ 0.864 µM) | 145 ± 12.1 (≈ 125 µM) | – | – | – | – | – | –
CC(C)CCCCC(=O)N[C@@H](CCN)C(=O)N[C@H](C(=O)N[C@H](CCN)C(=O)N[C@H]1CCNC(=O)[C@H]([C@@H](C)O)NC(=O)[C@H](CCN)NC(=O)[C@H](CCN)NC(=O)[C@H]([C@@H](C)O)NC(=O)[C@@H](CC(C)C)NC(=O)[C@H](CCN)NC1=O)[C@@H](C)O [Compound 31, 6-methylheptanoyl-Dab-Thr-D-Dab-ring(4-10)[Dab-Dab-D-Leu-Thr-Dab-Dab-Thr]] ({Heptanoyl(6-Me)}-[Dab]T[dDab][Dab][Dab][dL]T[Dab][Dab]T; lactam 4-C) | 0.5 (≈ 0.437 µM) | 0.5 (≈ 0.437 µM) | 1 (≈ 0.875 µM) | >128 | 0.5 (≈ 0.437 µM) | 288 ± 23.3 (≈ 252 µM) | – | – | – | – | – | –
CC[C@H](C)CCCCC(=O)N[C@@H](CCN)C(=O)N[C@H](C(=O)N[C@@H](CCN)C(=O)N[C@H]1CCNC(=O)[C@H]([C@@H](C)O)NC(=O)[C@H](CCN)NC(=O)[C@H](CCN)NC(=O)[C@H](CC(C)C)NC(=O)[C@@H](Cc2ccccc2)NC(=O)[C@H](CCN)NC1=O)[C@@H](C)O [Compound 42, (S)-6-methyloctanoyl-Dab-Thr-Dab-ring(4-10)[Dab-Dab-D-Phe-Leu-Dab-Dab-Thr]] (X2-[Dab]T[Dab][Dab][Dab][dF]L[Dab][Dab]T; lactam 4-C) | – | – | – | – | – | – | 1 (≈ 0.831 µM) | 0.5 (≈ 0.415 µM) | 2 (≈ 1.66 µM) | 32 (≈ 26.6 µM) | 0.5 (≈ 0.415 µM) | 71.3 ± 6.08 (≈ 59.2 µM)
CC(C)CCCCC(=O)N[C@@H](CCN)C(=O)N[C@H](C(=O)N[C@@H](CCN)C(=O)N[C@H]1CCNC(=O)[C@H]([C@@H](C)O)NC(=O)[C@H](CCN)NC(=O)[C@H](CCN)NC(=O)[C@H](CC(C)C)NC(=O)[C@@H](Cc2ccccc2)NC(=O)[C@H](CCN)NC1=O)[C@@H](C)O [Compound 43, 6-methylheptanoyl-Dab-Thr-Dab-ring(4-10)[Dab-Dab-D-Phe-Leu-Dab-Dab-Thr]] ({Heptanoyl(6-Me)}-[Dab]T[Dab][Dab][Dab][dF]L[Dab][Dab]T; lactam 4-C) | 0.5 (≈ 0.42 µM) | 0.5 (≈ 0.42 µM) | 2 (≈ 1.68 µM) | 64 (≈ 53.8 µM) | – | 159 ± 14.1 (≈ 134 µM) | – | – | – | – | 1 (≈ 0.841 µM) | –
CCCCCCCC(=O)N[C@@H](CCN)C(=O)N[C@H](C(=O)N[C@@H](CCN)C(=O)N[C@H]1CCNC(=O)[C@H]([C@@H](C)O)NC(=O)[C@H](CCN)NC(=O)[C@H](CCN)NC(=O)[C@H](CC(C)C)NC(=O)[C@@H](Cc2ccccc2)NC(=O)[C@H](CCN)NC1=O)[C@@H](C)O [Compound 44, octanoyl-Dab-Thr-Dab-ring(4-10)[Dab-Dab-D-Phe-Leu-Dab-Dab-Thr]] (Octanoyl-[Dab]T[Dab][Dab][Dab][dF]L[Dab][Dab]T; lactam 4-C) | 0.5 (≈ 0.42 µM) | 0.5 (≈ 0.42 µM) | 1 (≈ 0.841 µM) | 32 (≈ 26.9 µM) | 1 (≈ 0.841 µM) | 86.4 ± 8.31 (≈ 72.6 µM) | – | – | – | – | – | –
CCCCCCCC(=O)N[C@@H](CCN)C(=O)N[C@H](C(=O)N[C@@H](CCN)C(=O)N[C@H]1CCNC(=O)[C@H](CC(C)C)NC(=O)[C@H](CCN)NC(=O)[C@H](CCN)NC(=O)[C@H](CC(C)C)NC(=O)[C@@H](Cc2ccccc2)NC(=O)[C@H](CCN)NC1=O)[C@@H](C)O [Compound 129, octanoyl-Dab-Thr-Dab-ring(4-10)[Dab-Dab-D-Phe-Lue-Dab-Dab-Lue]] (Octanoyl-[Dab]T[Dab][Dab][Dab][dF]L[Dab][Dab]L; lactam 4-C) | 4 (≈ 3.33 µM) | 4 (≈ 3.33 µM) | 4 (≈ 3.33 µM) | 8 (≈ 6.66 µM) | 4 (≈ 3.33 µM) | – | – | – | – | – | – | –
CC(C)CCCCC(=O)N[C@@H](CCN)C(=O)N[C@H](C(=O)N[C@H](CCN)C(=O)N[C@H]1CCNC(=O)[C@H]([C@@H](C)O)NC(=O)[C@H](CCN)NC(=O)[C@H](CCN)NC(=O)[C@H]([C@@H](C)O)NC(=O)[C@@H](Cc2ccccc2)NC(=O)[C@H](CCN)NC1=O)[C@@H](C)O [Compound 144, 6-methylheptanoyl-Dab-Thr-D-Dab-ring(4-10)[Dab-Dab-D-Phe-Thr-Dab-Dab-Thr]] ({Heptanoyl(6-Me)}-[Dab]T[dDab][Dab][Dab][dF]T[Dab][Dab]T; lactam 4-C) | 1 (≈ 0.849 µM) | 0.5 (≈ 0.425 µM) | 1 (≈ 0.849 µM) | >128 | 1 (≈ 0.849 µM) | – | – | – | – | – | – | –
